Among the data in PubChem BioAssay (NCI) are GI50 and TGI values, retold here.

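Growth conditions: 96-well plates. Treatment: test compound, 48 hours, 5 concentrations. Analysis: linear interpolation between bracketing concentrations; unreached endpoints set to highest concentration. The concentration for 50% growth inhibition is given as GI50. TGI denotes the concentration required for complete inhibition of growth.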

Some test systems named below: CCRF-CEM leukemia; DU-145 prostate; HCT-116 colon; HL-60(TB) leukemia; HOP-62 NSCLC; HT29 colon; LOX IMVI melanoma; MDA-MB-435; PC-3 prostate; SNB-19 CNS.
Test in all cases: NCI anticancer screen, dose series, 48 h

As for `COc1cc(C2CC(c3cc(C)ccc3C)=NN2c2ccc(S(=O)(=O)NC(=O)NCc3ccccc3)cc2)cc(OC)c1OC` (stereo not given), the GI50 with CCRF-CEM leukemia was 3.15 µM; in the assay on DU-145 prostate, 6.05 µM; in the assay on HCT-116 colon it was 3.21 µM; in the assay on HL-60(TB) leukemia, 3.62 µM; in the assay with HOP-62 NSCLC it was 4.3 µM; in the assay on HT29 colon, 3.87 µM. For the same molecule, the GI50 is 3.79 µM in the assay on LOX IMVI melanoma, 2.27 µM with MDA-MB-435, 2.54 µM in the assay with PC-3 prostate and 3.75 µM in the assay on SNB-19 CNS. Moreover, the TGI in the assay with CCRF-CEM leukemia was 18.6 µM; in the assay with DU-145 prostate it was 30.8 µM; in the assay with HCT-116 colon, > 100 µM; with HL-60(TB) leukemia, 11.4 µM; with HOP-62 NSCLC it was 37.1 µM; with HT29 colon it was 47.7 µM. The TGI was > 100 µM in the assay on LOX IMVI melanoma, 5.25 µM in the assay on MDA-MB-435, 12.3 µM in the assay with PC-3 prostate and 43.8 µM in the assay with SNB-19 CNS.

As to `CC(=O)OC[C@]12CC[C@@H]([C@@H](C)C(N)=O)[C@@H]1[C@H]1CC[C@@H]3[C@@]4(C)CC[C@H](OC(C)=O)C(C)(C)[C@@H]4CC[C@@]3(C)[C@]1(C)CC2`, the GI50 was 5.19 µM with CCRF-CEM leukemia; 9.94 µM in the assay on DU-145 prostate; 3.57 µM with HCT-116 colon; 2.76 µM in the assay with HL-60(TB) leukemia; 11 µM in the assay on HOP-62 NSCLC; 3.73 µM in the assay on HT29 colon. The GI50 was 10.2 µM in the assay on LOX IMVI melanoma, 5.23 µM in the assay with MDA-MB-435, 2.67 µM in the assay with PC-3 prostate and 11.9 µM in the assay on SNB-19 CNS. The TGI in the assay on CCRF-CEM leukemia turned out to be 30 µM; in the assay with DU-145 prostate, 23.3 µM; in the assay on HCT-116 colon it was 14.7 µM; in the assay on HL-60(TB) leukemia it was 8.4 µM; with HOP-62 NSCLC, 26.6 µM; in the assay with HT29 colon it was 15.4 µM. Further, the TGI in the assay with LOX IMVI melanoma worked out at 24.4 µM; with MDA-MB-435 it was 22.3 µM; in the assay with PC-3 prostate, 11.6 µM; with SNB-19 CNS, 29.1 µM.
